Data set [1] relates to APP/PS1 transgenic mice. Kind of data set: Learning and memory (novel object recognition, Morris water maze) in APP/PS1 transgenic mice. The following applies: 12 month APP/PS1 mice, 25 mg/kg/d minipump i.p. infusion, 3-6 weeks. The data set is classed as in vivo, mouse. How it is done:
FIG. 5A plots the time mice spent interacting with a familiar and a novel object. Mean±SEM, n=10-16 mice. *, p<0.05; **, p<0.01 by two-way ANOVA, Sidak's multiple comparisons test. FIG. 5B depicts spatial learning and memory as examined by the Morris-Water-Maze after 30 swim trials to a hidden platform. A 60 second probe trial was performed 24 hours after completion of training. Time spent in the quadrant where the hidden platform had been located. Mean±SEM of n=7-23 mice. *, p<0.05; ***, p<0.001. Dashed lines in FIGS. 5A-5B are chance (no memory). […]
The efficacy of PF-719 Pyk2 inhibitor to rescue AD transgenic phenotypes was tested by infusion for 6 weeks in 12 month APP/PS1 transgenic with pre-established memory deficits and WT mice, similar to the SAM 923 and Pyk2−/− experiments. […] The brains of these mice are analyzed for synapse density, gliosis and Aβ. […]
Mice were handled for five minutes a day for five days prior to experiment to reduce anxiety. […] Object choice was pseudorandom; the object was recorded as the familiar object for each animal. The mouse was then replaced in cage's center, not facing either object, and a total timer counted up to ten minutes. The mice were allowed to explore the object and the time it took to accumulate thirty seconds of total orofacial object exploration was recorded. […]

For data set [2], the target named is Pyk2 (Homo sapiens, UniProt Q14289). The data set can be described thus: Pyk2 Ki of kinase inhibitors (CHEMBL & IUPHR-BPS database screen, Table 2). It counts as biochemical. The following applies: Pyk2 versus Fyn.
For data set [3], the system named is Pyk2 activation (p-Pyk2). The data set can be described thus: Pyk2 activation and Aβo-induced signaling in cells. The following applies: 500 nM. The data set is classed as cell-based. How it is done: (§1) In brain slices and in dissociated primary neuronal cultures, Aβo causes Fyn activation, Pyk2 activation, altered Glu-induced calcium signaling, dendritic spine loss and suppression of LTP. […] After developing LC/MS/MS methods to detect PF-719, the extent to which the Pyk2 inhibitor enters brain from peripheral dosing was determined. […] Continuous 25 mg/kg/d minipump i.p. infusion was chosen for treatment of APP/PS1 mice.

The target of data set [4] is Fyn (Homo sapiens, UniProt P06241). The following applies: cited from earlier work.
Data set [5] has as its target FAK (Homo sapiens, UniProt Q05397). The following applies: cited from earlier work.
The nature of data set [6]: Brain and plasma levels after peripheral dosing (LC/MS/MS). The data set is classed as in vivo, mouse. How it is done: as §1
Data set [7] concerns cultured mouse hippocampal neurons. The data set can be described thus: GFP-Pyk2 overexpression-induced dendritic spine loss in cultured hippocampal neurons. The data set is classed as cell-based. The settings on record: PF-719 1 μM; Y27632 10 μM; DIV 17-21.
Source text: FIG. 7A: TBS-T soluble human Alzheimer's disease brain extracts were immunoblotted with anti-Pyk2 or anti-pY402 Pyk2 specific antibodies. FIG. 7B: Densitometric analysis of the immunoblots from FIG. A. p-Pyk2/Pyk2 ratio values were normalized to control mean value. Data are graphed as mean±SEM (Control, n=10; AD, n=10). *p<0.05 by Student's two-tailed t test. FIG. 7C: Representative immunofluorescent images of Pyk2 immunoreactivity from hippocampal CA1 in WT and Pyk2 null mice at 12-months age. […] FIG. 7D: Hek293T cells were co-transfected with either control vector or flag-tagged Fyn and GFP-tagged Pyk2 or K457A kinase dead mutant. Lysates were immunoblotted with anti-GFP (for GFP tagged Pyk2 and K457A mutant), anti-Fyn, and anti-pSFK antibodies. FIG. 7E: Representative GFP fluorescent images of cultured mouse hippocampal neurons. […] FIG. 7G: Quantification of dendritic spine density in the transfected neurons.
FIG. 10A: GST-RBD pull-down assay from Hek293T cell lysate from cells expressing indicated plasmids. […] FIG. 10B: Levels of RhoA-GTP (RBD pull-down) and RhoA-total (5% lysate) were quantified by densitometric measurement. […] FIG. 10D: Quantification of RhoA-GTP/total RhoA ratio by densitometric analysis. […] FIG. 10E: Representative GFP fluorescence images of the cultured hippocampal neurons. […] FIG. 10F: Quantification of dendritic spine density. […]

Molecules are shown by their SMILES.

As usually defined, the Ki is the equilibrium dissociation constant of an inhibitor or competing ligand from its target. One may read the half-life as the time in which the quantity being followed falls by half. High values mean slow loss, low ones fast loss.

Pyk2, sequence (Q14289 whole entry, species assumed, the tested form may be a part): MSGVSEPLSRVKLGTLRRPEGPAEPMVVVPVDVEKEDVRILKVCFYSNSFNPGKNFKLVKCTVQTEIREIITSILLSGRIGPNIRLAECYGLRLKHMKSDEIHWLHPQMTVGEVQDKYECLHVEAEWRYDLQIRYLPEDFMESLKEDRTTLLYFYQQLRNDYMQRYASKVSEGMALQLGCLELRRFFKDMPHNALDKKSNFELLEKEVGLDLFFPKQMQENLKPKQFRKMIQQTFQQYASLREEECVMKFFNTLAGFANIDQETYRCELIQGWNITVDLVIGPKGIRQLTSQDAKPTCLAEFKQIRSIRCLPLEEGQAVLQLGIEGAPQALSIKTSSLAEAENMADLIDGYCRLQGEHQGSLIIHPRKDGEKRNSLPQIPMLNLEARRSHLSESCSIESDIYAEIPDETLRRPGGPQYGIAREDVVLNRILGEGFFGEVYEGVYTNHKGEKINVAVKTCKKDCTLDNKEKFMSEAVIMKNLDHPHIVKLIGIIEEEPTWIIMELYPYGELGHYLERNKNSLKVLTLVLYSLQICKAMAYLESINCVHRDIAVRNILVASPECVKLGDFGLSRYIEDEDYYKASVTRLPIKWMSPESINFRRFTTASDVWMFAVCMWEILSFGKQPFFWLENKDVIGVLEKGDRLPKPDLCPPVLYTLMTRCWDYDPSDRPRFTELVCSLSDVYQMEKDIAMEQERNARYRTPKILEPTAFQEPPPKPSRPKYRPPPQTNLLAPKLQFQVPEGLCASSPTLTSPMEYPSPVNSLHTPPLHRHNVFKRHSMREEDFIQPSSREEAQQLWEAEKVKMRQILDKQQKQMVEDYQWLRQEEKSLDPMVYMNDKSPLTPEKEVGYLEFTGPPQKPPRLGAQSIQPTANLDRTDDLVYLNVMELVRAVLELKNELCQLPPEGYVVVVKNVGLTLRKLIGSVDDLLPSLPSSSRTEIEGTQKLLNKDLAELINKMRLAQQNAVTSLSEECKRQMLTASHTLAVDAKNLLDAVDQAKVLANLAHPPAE
FAK, sequence (Q05397 whole entry, species assumed): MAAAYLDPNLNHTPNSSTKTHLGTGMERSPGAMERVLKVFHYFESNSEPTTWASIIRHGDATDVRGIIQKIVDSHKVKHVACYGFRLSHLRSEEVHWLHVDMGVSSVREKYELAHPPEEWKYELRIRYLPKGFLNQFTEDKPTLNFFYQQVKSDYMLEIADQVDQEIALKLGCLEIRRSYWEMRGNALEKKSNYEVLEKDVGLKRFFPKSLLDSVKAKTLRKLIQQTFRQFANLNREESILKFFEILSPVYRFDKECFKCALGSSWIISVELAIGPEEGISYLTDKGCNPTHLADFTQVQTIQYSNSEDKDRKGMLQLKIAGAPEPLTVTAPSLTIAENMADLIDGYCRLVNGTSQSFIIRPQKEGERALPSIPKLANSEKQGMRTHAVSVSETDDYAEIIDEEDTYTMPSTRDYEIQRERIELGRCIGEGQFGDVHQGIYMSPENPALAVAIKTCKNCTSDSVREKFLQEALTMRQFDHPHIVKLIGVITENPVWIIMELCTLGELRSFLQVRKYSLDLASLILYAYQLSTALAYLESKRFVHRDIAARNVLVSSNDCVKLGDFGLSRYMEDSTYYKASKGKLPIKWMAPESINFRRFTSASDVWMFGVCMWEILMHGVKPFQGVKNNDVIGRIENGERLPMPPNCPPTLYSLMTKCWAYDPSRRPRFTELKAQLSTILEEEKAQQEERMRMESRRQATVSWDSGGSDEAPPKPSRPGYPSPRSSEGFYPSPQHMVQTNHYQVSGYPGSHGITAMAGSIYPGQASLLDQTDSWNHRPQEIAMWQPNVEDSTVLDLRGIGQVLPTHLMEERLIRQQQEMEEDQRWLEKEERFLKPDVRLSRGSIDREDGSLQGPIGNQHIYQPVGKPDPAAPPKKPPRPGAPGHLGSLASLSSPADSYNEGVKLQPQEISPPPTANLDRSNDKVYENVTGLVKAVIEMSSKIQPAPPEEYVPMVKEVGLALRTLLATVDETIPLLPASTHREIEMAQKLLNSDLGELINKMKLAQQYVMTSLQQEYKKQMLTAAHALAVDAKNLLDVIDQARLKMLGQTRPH
Fyn, sequence (P06241 whole entry, species assumed): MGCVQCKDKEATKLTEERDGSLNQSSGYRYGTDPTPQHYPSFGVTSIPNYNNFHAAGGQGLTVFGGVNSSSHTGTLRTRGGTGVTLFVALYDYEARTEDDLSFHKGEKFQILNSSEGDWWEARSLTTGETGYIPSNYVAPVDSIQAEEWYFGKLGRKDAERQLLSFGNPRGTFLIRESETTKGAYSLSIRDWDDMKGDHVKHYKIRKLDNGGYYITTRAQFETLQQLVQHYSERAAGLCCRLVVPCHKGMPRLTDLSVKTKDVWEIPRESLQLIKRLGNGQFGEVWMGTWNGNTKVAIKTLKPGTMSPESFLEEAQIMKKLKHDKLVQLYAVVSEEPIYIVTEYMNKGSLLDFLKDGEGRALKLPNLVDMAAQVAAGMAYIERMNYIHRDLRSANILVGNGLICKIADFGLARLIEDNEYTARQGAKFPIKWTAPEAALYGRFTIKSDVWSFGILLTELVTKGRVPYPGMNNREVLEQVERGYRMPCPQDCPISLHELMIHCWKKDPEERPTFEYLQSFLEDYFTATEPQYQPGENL

On to `CCOc1ccc2nc(SCc3nc(N)nc(N4CCOCC4)n3)sc2c1` [PF-719, 4-(((6-ethoxybenzo[d]thiazol-2-yl)thio)methyl)-6-morpholino-1,3,5-triazin-2-amine], for which the “learning and memory performance” value in data set [1] is on record as “significantly greater than Vehicle/untreated levels”. The “Inhibition Character” value in data set [2] is “Pyk2 selective”. Also, the “baseline Pyk2 activation and Aβo-induced signaling in cells” value in data set [3] is “blocked baseline Pyk2 activation and Aβo-induced signaling”. Besides, the Ki in data set [4] is above 1000 nM; in data set [5], 450 nM. Also, the “brain level above the Ki” value in data set [6] (5 mg/kg, 90 min) amounted to 30 fold. The Kp at 90 min in data set [6] (mouse, brain and plasma, other: i.p. or p.o., single dose 5 mg/kg i.p. or p.o., 90 min, read-out: brain level as share of plasma level) was around 0.3. In addition, in data set [6] (mouse, brain, other: i.p. or p.o., single peripheral dose of 5 mg/kg i.p. or p.o., at 90 min), the concentration at 90 min came to 450 ± 110 nM. In addition, the half-life in data set [6] (mouse, in vivo, other: i.p. or p.o., single dose 5 mg/kg i.p. or p.o.) is 6 h. Moreover, the Oral bioavailability result in data set [6] (p.o. compared with i.p.) is recorded as “equal”. Besides, the GFP-Pyk2-induced spine loss entry in data set [7] is reported as “partial rescue”.

Source of the values: US20190275040A1, “COMPOUNDS AND METHODS FOR TREATING OR PREVENTING ALZHEIMER'S DISEASE” (YALE UNIVERSITY, priority 2016, published 2019).
